Laboratory results as given in EP4796551A1, “ZWITTERIONIC PHOSPHOLIPID COMPOUND AND LIPID NANOPARTICLE CONTAINING THE SAME” (National University Corporation Hokkaido University, priority 2023, dated 2025).
One block for each molecule: values may come before it.

Key:
erythrocytes (RBCs) = assay: Membrane disruption ability of LNP (hemolytic activity); format: cell-based, BALB/c mice; details: pH 6.0, 37°C, 30 minutes, Fig. 6B
Protocol: In order to use as an index of endosomal escape efficiency of LNP, membrane disruption ability of LNP was evaluated using erythrocytes as a model biological membrane. Specifically, fresh erythrocytes (RBCs) were collected from BALB/c mice and suspended in a buffer solution (10 mM malic acid, 10 mM HEPES, 10 mM MES, and 120 mM NaCl) at pH 5.0, 6.0, or 7.4. The RBC suspension was mixed with the same amount of each LNP suspension (containing DOPE-C8, DOPE, or DSPC as phospholipid) and reacted at 37°C for 30 minutes. Then, the supernatant was collected, absorbance at 545 nm was measured, and hemoglobin leaked from the erythrocytes was quantified. As a positive control, a sample hemolyzed with 0.5 w/v% Triton X-100 was prepared, and as a negative control, a sample not containing LNP was prepared. The ratio of the absorbance of the test sample to the absorbance of the positive control was expressed as % hemolytic activity.

[1] = Lipid polymorphism by 31P NMR method (mixtures with POPC); format: physicochemical
Protocol: In order to examine the interaction between DOPE-Cx and PC and characteristics thereof, lipid polymorphism of the lipid suspension was evaluated by a ^31P NMR method. Since the rotational motion of lipid molecules in a lamellar phase which is a planar structure and a (inverted) hexagonal phase which is a tubular structure receives different restrictions respectively, a specific ^31P NMR spectrum is provided by chemical shift anisotropy. Specifically, the lamellar phase produces a broad […] peak, and the (inverted) hexagonal phase produces a broad […] peak.
First, DOPE or DOPE-C8 and 1-palmitoyl-2-oleoyl-sn-glycero-3-phosphocholine (POPC) were mixed at a predetermined ratio in 400 µL of chloroform (total lipid 16 µmol), and the solvent was removed by a rotary evaporator to form a lipid membrane. The lipid membrane was hydrated with 500 µL of 20 mM HEPES buffer (pH 7.4, 130 mM NaCl) at 60°C. Then, the lipid dispersion was transferred to an NMR tube, and a ^31P NMR spectrum at room temperature was measured by a conventional method using an ECX 400P spectrometer (JEOL Ltd.).

[2] = Particle size, PDI and ζ-potential of mRNA-LNP (Zetasizer Nano ZS); format: physicochemical; details: mRNA-LNP formulation phospholipid:CL4F6:Chol:PEG-DMG 10:50:40:1.0, Fluc mRNA
Protocol: (§1) Ethanol solutions containing each phospholipid, CL4F6, Chol, and PEG2000-dimirystoylglycerol (PEG-DMG) at the molar ratio of 10:50:40:1.0 were prepared at the total lipid concentration of 16 mM. For fluorescent labeling of LNPs, 0.5 mol% of DiI or DiR was added to the above solutions. The firefly luciferase (Fluc)-encoding mRNA (TriLink) was dissolved in a 25 mM acetate buffer (pH 4.0). LNPs were prepared by mixing the lipids in ethanol and RNA in an aqueous solution using an iLiNP device at a total flow rate (TFR) of 0.5 mL/min and a flow rate ratio (FRR) (RNA flow rate/lipid flow rate) of 3. The nitrogen to phosphate (N/P) ratio was adjusted to 6. Syringe pumps (Harvard apparatus) were used to control the flow rate of the solutions. The resulting LNP solutions were then dialyzed for 2 hours or more at 4 °C against phosphate buffered saline without Ca^2+ and Mg^2+ (PBS(-)) using Spectra/Por 4 dialysis membranes (molecular weight cut-off 12,000-14,000 Da, Spectrum Laboratories). The LNP solutions were concentrated by ultrafiltration using an Amicon Ultra-15 unit (MWCO 100 kDa, Millipore) as needed.
(§2) The ζ-average particle size, polydispersity index (PDI), and ζ-potential of the LNPs were measured by means of a Zetasizer Nano ZS ZEN3600 instrument (Malvern Instruments). The encapsulation efficiency and total concentration of mRNA were measured by a Ribogreen assay according to a conventional method.

[3] = Ribogreen assay, mRNA encapsulation efficiency of LNP; format: physicochemical; details: mRNA-LNP formulation phospholipid:CL4F6:Chol:PEG-DMG 10:50:40:1.0, Fluc mRNA
Protocol: as §1, §2

liver [4] = assay: EGFP expression in the liver after intravenous EGFP mRNA-LNP (CLSM); format: in vivo, BALB/c mice; details: Fig. 5, LNP containing the phospholipid, 1 mg RNA/kg, 24 hours later, compared with DSPC or DOPE LNP
Protocol: Further, an mRNA-LNP formulation was prepared in the same manner as in the above item (2) except that mRNA encoding EGFP (TriLink) was used as mRNA, and it was intravenously administered to BALB/c mice at a dose of 1 mg RNA/kg. Then, 24 hours later, the liver was collected by a conventional method, and expression of EGFP was observed using a confocal laser scanning microscope (CLSM).

[5] = Lipid polymorphism by SAXS method; format: physicochemical; details: DOPE-C8 and POPC at a molar ratio of 1:1, Fig. 10
Protocol: In order to identify the phase of the lipid suspension obtained by mixing DOPE-C8 and POPC at a molar ratio of 1:1, measurement by a small-angle X-ray scattering (SAXS) method was performed by a conventional method using a NANO-Viewer apparatus (Rigaku Corporation).

liver [6] = assay: mRNA introduction ability: luciferase activity in the liver after intravenous Fluc mRNA-LNP; format: in vivo, BALB/c mice; details: Fig. 2, n=3, LNP containing the phospholipid, 0.01 mg RNA/kg, livers collected 6 hours later
Protocol: as §1, with “The resulting LNP solutions were then dialyzed for 2 hours or more at 4 °C against phosphate buffered saline without Ca^2+ and Mg^2+ (PBS(-)) using Spectra/Por 4 dialysis membranes (molecular weight cut-off 12,000-14,000 Da, Spectrum Laboratories). The LNP solutions were concentrated by ultrafiltration using an Amicon Ultra-15 unit (MWCO 100 kDa, Millipore) as needed.” left out
The mRNA-LNP formulations prepared in the above item (2) were intravenously administered to BALB/c mice at a dose of 0.01 mg RNA/kg, and the livers were collected by a conventional method 6 hours later. […] The supernatant was collected, and […] was measured by a luminometer (Luminescencer-PSN, ATTO Corporation) using Luciferase Assay System (Promega). The protein concentration was determined using a BCA protein assay kit (Pierce). Fluc activity was expressed as relative light units (RLU) per 1 mg of protein.

[7] = lipid alone (lipid:POPC=1:0), 20 mM HEPES pH 7.4, room temperature

Number average particle size (nm) ([2]; Table 1): 57 nm | PDI ([2]; Table 1): 0.25 | ζ-potential (mV) ([2]; Table 1): -2.5 mV | ζ-average particle size (nm) ([2]; Table 1, N/P 6): 88 nm | Number average particle size (nm) ([2]; Table 2): 67 nm | PDI ([2]; Table 2): 0.13 | ζ-average particle size (nm) ([2]; Table 2): 95 nm | ζ-potential (mV) ([2]; Table 2): -2.9 mV | mRNA encapsulation rate % ([3]; Table 1): 93.0% | mRNA encapsulation rate % ([3]; Table 2): 92.8%
SMILES: CCCCCCCC/C=C\CCCCCCCC(=O)OC[C@H](COP(=O)(O)OCCN)OC(=O)CCCCCCC/C=C\CCCCCCCC [DOPE, 1,2-dioleoyl-sn-glycero-3-phosphoethanolamine, reference compound]
membrane disruption activity (hemolytic activity) (erythrocytes (RBCs)): higher membrane disruption activity than the LNP containing DSPC | lipid phase by 31P NMR spectrum [1, 7]: spectrum derived from the inverted hexagonal phase | lipid phase by 31P NMR spectrum ([1]; lipid:POPC=9:1, 20 mM HEPES pH 7.4, room temperature): transition to the lamellar phase occurred

lipid phase by 31P NMR spectrum ([1]; lipid:POPC molar ratio 1:1, 20 mM HEPES pH 7.4, room temperature): sharp peak centered at 0 ppm | Number average particle size (nm) ([2]; Table 1): 62 nm | PDI ([2]; Table 1): 0.21 | ζ-potential (mV) ([2]; Table 1): -5.6 mV | ζ-average particle size (nm) ([2]; Table 1, N/P 6): 94 nm | Number average particle size (nm) ([2]; Table 3): 55 nm | PDI ([2]; Table 3): 0.17 | ζ-average particle size (nm) ([2]; Table 3): 80 nm | ζ-potential (mV) ([2]; Table 3): -12.8 mV | mRNA encapsulation rate % ([3]; Table 1): 92.6% | mRNA encapsulation rate % ([3]; Table 3): 97.6%
SMILES: CCCCCCCC/C=C\CCCCCCCC(=O)OC[C@H](COP(=O)(O)OCCNCCC(=O)OCCCCCCCC)OC(=O)CCCCCCC/C=C\CCCCCCCC [DOPE-C8, (R)-2,3-bis(oleoyloxy)propyl (2-((3-(octyloxy)-3-oxopropyl)ammonio)ethyl) phosphate]
expression of EGFP in the liver (liver [4]): significantly higher expression of EGFP | phase of the lipid suspension by SAXS [5]: Im3m type inverse bicontinuous cubic phase | membrane disruption activity (hemolytic activity) (erythrocytes (RBCs)): higher membrane disruption activity than the LNP containing DSPC | luciferase activity in the liver (liver [6]): highest activity | lipid phase by 31P NMR spectrum ([1]; POPC content increased beyond 1:1, Fig. 7B): the peak derived from the lamellar phase became stronger in a POPC content-dependent manner | lipid phase by 31P NMR spectrum [1, 7]: spectrum derived from the inverted hexagonal phase
